How the values were obtained:
human OAT2 = molecular target: T1, human OAT2 (Homo sapiens, UniProt Q9Y694); assay: Cellular transport assay, HEK-293 cells expressing human OAT2; conditions: for TransportTC/TransportMC ratio (net transport ratio): 10 min; for K m: human hepatic sinusoidal uptake OAT2 (also renal basolateral), 5 min incubation, concentrations in Table 1
T1 sequence (Q9Y694 1-546 isoform Q9Y694-2): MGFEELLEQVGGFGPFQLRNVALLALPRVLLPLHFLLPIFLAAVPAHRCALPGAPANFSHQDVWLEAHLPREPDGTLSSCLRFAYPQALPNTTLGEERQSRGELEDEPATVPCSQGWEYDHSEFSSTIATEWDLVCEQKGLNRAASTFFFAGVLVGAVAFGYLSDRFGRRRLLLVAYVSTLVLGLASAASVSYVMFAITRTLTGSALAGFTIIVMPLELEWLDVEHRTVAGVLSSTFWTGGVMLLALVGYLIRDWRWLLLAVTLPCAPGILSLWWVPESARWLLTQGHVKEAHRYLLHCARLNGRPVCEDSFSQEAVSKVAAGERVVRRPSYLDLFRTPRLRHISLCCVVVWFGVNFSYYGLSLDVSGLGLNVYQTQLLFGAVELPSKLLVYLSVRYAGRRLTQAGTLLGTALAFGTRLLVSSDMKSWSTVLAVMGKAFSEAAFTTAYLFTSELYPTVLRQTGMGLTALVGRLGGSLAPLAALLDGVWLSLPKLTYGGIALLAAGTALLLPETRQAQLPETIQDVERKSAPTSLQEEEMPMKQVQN
Outline: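 First, HEK-293 cells received either the expression plasmid or empty vector by lipofection; 48 h later they were incubated with test compound for 5 min.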

rat Oat1 = molecular target: T2, rat Oat1 (Rattus norvegicus, UniProt O35956); assay: Cellular transport assay, HEK-293 cells expressing rat Oat1; conditions: for TransportTC/TransportMC ratio (net transport ratio): 10 min; for K m: rat renal basolateral uptake Oat1, 5 min incubation, concentrations in Table 1
T2 sequence (O35956 1-551): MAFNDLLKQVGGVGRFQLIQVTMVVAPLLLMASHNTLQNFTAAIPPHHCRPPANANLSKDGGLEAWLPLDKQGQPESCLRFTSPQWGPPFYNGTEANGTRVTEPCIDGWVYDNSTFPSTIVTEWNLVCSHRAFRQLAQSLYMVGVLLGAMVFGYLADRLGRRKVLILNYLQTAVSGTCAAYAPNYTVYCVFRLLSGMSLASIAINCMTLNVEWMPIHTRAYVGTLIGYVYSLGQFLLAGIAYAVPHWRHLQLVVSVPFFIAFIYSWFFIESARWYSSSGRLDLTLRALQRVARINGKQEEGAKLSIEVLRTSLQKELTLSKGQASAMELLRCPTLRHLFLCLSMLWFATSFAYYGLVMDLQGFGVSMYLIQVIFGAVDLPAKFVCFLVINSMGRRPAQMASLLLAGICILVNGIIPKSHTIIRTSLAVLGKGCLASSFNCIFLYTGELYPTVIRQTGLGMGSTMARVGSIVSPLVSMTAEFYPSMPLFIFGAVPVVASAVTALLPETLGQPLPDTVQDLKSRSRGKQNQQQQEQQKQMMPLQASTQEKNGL

human BCRP = molecular target: T3, human BCRP (Homo sapiens, UniProt Q9UNQ0); assay: Vesicular transport assay, inside-out membrane vesicles expressing human BCRP; conditions: 10 min
T3 sequence (Q9UNQ0 1-655): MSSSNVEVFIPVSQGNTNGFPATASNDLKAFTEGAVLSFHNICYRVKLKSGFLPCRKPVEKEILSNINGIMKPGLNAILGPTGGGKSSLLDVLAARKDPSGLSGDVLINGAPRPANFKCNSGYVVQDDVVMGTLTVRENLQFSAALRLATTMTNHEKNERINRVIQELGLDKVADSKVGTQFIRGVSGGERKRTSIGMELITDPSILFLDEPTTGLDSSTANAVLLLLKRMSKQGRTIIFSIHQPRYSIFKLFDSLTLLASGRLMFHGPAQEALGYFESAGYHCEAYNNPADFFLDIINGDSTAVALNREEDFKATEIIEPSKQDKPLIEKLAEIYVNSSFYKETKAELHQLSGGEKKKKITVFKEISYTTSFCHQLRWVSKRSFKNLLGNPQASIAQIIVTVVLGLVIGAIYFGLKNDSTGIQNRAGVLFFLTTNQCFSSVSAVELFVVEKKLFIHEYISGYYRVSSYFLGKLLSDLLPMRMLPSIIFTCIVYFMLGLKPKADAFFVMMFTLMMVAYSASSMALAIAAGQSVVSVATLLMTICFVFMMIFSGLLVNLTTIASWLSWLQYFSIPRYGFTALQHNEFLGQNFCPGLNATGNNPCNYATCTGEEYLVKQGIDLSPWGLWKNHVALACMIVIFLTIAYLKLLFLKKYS
Procedure: (§1) Inside-out membrane vesicles (5 mg protein/mL), prepared from insect cells expressing human multidrug resistance-associated protein (MRP) 2, MRP3, MRP4, breast cancer resistance protein (BCRP), bile salt export pump (BSEP), and multidrug resistance protein (MDR) one and rat Mrp2, Mrp4, Bcrp, and Bsep, and vesicles (5 mg protein/mL; prepared from the insect cells expressing no ABC transporter; serving as negative control) were obtained from Genomembrane (Kanazawa, Japan).
(§2) The test Danshen compounds at 100 µM final concentration were separately incubated with the membrane vesicles for 10 min. Buffer C (50 mM MOPS-tris, 70 mM KCl, 7.5 mM MgCl2, pH 7.0) was used for preincubation and incubation, while buffer D (40 mM MOPS-tris, 70 mM KCl, pH 7.0) was used for vesicle washing. The transport rate (pmol/mg protein/min) of the test Danshen compound was calculated using Equation (2): Transport=(CV×VV)/T/WV (2) where C V, V V, T, and W V represent concentration of the compound in vesicular lysates supernatant (μM), volume of the lysates (μL), incubation time (10 min), and amount of vesicle protein amount per well (0.05 mg), respectively. Differential transport of the test Danshen compound between ATP-containing vesicles and AMP-containing vesicles was defined as net transport ratio (TransportATP/TransportAMP ratio). […] All the incubation samples were analyzed by liquid chromatography/mass spectrometry.

rat Mrp2 = rat Mrp2 (Rattus norvegicus, UniProt Q63120); assay: Vesicular transport assay, inside-out membrane vesicles expressing rat Mrp2; conditions: for TransportATP/TransportAMP ratio (net transport ratio): 10 min
Chain of rat Mrp2 (Q63120 whole entry): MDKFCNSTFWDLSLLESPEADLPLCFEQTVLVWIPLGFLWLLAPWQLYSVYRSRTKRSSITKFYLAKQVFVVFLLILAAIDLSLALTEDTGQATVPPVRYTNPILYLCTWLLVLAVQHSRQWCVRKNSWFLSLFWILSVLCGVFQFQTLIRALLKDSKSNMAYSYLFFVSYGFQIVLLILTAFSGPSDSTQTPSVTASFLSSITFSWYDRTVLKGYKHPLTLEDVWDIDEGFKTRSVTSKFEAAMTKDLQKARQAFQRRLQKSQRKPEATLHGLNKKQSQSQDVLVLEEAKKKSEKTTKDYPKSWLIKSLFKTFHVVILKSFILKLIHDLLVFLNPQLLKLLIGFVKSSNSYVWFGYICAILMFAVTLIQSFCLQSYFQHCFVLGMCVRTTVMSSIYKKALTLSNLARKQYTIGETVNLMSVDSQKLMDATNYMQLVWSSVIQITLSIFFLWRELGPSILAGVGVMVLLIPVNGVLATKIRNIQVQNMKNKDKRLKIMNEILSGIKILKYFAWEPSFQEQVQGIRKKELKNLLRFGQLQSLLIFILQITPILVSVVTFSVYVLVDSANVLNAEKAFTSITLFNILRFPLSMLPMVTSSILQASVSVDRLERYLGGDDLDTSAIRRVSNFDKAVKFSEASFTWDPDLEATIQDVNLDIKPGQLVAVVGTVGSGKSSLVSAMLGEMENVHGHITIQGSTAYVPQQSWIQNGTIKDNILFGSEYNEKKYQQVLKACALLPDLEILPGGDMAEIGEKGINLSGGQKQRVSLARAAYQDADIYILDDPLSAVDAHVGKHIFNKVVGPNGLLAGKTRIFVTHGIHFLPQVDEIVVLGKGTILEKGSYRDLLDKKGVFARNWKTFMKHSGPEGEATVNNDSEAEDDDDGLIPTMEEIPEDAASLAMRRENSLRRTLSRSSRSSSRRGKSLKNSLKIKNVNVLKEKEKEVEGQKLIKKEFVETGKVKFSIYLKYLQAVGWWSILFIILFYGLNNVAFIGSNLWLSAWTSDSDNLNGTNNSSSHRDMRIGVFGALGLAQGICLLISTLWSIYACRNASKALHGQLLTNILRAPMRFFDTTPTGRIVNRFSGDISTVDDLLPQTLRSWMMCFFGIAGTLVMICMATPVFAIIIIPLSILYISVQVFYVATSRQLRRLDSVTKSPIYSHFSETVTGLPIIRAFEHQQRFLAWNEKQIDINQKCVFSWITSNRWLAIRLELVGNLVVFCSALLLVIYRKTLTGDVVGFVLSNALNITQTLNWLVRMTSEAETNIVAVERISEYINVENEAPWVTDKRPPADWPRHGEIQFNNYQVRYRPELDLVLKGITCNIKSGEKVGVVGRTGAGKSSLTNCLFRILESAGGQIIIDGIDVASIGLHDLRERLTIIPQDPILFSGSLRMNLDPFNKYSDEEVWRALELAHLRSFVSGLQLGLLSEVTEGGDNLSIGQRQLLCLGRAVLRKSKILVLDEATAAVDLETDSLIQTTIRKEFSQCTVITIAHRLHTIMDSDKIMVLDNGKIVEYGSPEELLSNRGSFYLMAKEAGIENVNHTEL
Procedure: as §1, §2

[1] = Danshen phenolic acid at 100 μM final concentration, human OAT2-transfected vs mock cells
[2] = Danshen phenolic acid at 100 μM final concentration, rat Oat1-transfected vs mock cells
[3] = Danshen phenolic acid at 100 μM final concentration, human BCRP vesicles
[4] = Danshen phenolic acid at 100 μM final concentration, rat Mrp2 vesicles

Compound	TransportTC/TransportMC ratio (net transport ratio) (human OAT2; [1])	TransportTC/TransportMC ratio (net transport ratio) (rat Oat1; [2])	TransportATP/TransportAMP ratio (net transport ratio) (human BCRP; [3])	TransportATP/TransportAMP ratio (net transport ratio) (rat Mrp2; [4])	substrate of human OAT2 (human OAT2)	microsomal CLint (human OAT2; human)	K m (human OAT2)	microsomal CLint (rat Oat1; rat)	K m (rat Oat1)	TransportTC/TransportMC ratio (net transport ratio) (human OAT2; human, 100 μM)	microsomal CLint (human OAT2; human, other cell line)	substrate of rat Oat1 (rat Oat1)	TransportTC/TransportMC ratio (net transport ratio) (rat Oat1; rat, 100 μM)	microsomal CLint (rat Oat1; rat, other cell line)	TransportATP/TransportAMP ratio (net transport ratio) (human BCRP; human, not told, 100 μM, pH 7)	TransportATP/TransportAMP ratio (net transport ratio) (rat Mrp2; rat, 100 μM, pH 7)	substrate of rat Mrp2 (rat Mrp2)
O=C(/C=C/c1ccc(O)c2c1[C@H](C(=O)O)[C@@H](c1ccc(O)c(O)c1)O2)O[C@H](Cc1ccc(O)c(O)c1)C(=O)O [Lithospermic acid, lithospermic acid]	1.51 ± 0.27	1.36 ± 0.35	1.12 ± 0.31	1.83 ± 0.45													
O=C(O)c1ccc(O)c(O)c1 [Protocatechuic acid, protocatechuic acid]	417 ± 23	104 ± 20	1.04 ± 0.19	0.74 ± 0.13	substrates	20.7 µL/min/mg	185 ± 24 µM	4.07 µL/min/mg	110 ± 19 µM								
O=C(/C=C/c1ccc(O)c(O)c1)O[C@H](Cc1ccc(O)c(O)c1)C(=O)O [Rosmarinic acid, rosmarinic acid]					substrates		48.6 ± 4.2 µM		59.2 ± 4.7 µM	716 ± 86	19.1 µL/min/mg	substrates	150 ± 46	3.47 µL/min/mg	1.12 ± 0.55	1.24 ± 0.45	
O=C(/C=C/c1ccc(O)c(O)c1/C=C/c1ccc(O)c(O)c1)O[C@H](Cc1ccc(O)c(O)c1)C(=O)O [Salvianolic acid A, salvianolic acid A]					not a substrate					2.25 ± 0.47		not substrates	1.13 ± 0.64		1.12 ± 0.35	1.80 ± 0.81	
O=C(O)Cc1c(/C=C/C(=O)O[C@H](Cc2ccc(O)c(O)c2)C(=O)O)ccc(O)c1O [Salvianolic acid D, salvianolic acid D]	314 ± 44	11.5 ± 2.9	2.22 ± 0.61	2.21 ± 0.89	substrates	24.3 µL/min/mg	111 ± 13 µM	4.72 µL/min/mg	24.4 ± 3.3 µM								
O=C(O)C(O)Cc1ccc(O)c(O)c1 (stereo not shown) [Tanshinol, tanshinol]							1,228 ± 160 μM		154 ± 13 µM					4.13 µL/min/mg			
salvianolic acid B	1.04 ± 0.09	1.56 ± 0.67	1.54 ± 0.78	4.43 ± 1.12													substrate
